“Also recorded” adds a separate entry of the source.
How the values were obtained:
[1] = system: Ramos and Daudi; details: ERK1/2 pathway inhibitors; cited from earlier work
[2] = system: Daudi-RR1; assay: DNA fragmentation (PI) apoptosis assay, Daudi-RR1; details: for resistance of clone compared with wt cells / resistance of clone compared with wt cells, value in parentheses / apoptosis, drug alone: 18 h; for apoptosis, drug after DHMEQ pre-treatment: DHMEQ 20 μg/ml 2 h, then highest drug concentration 18 h; for apoptosis, drug alone: highest drug concentration
Method: (§1) Percentage of apoptotic cells was determined by evaluation of propidium iodide (PI) stained preparations of cells using an EpicXL flow-cytometer. Cellular debris was excluded from analysis by raising the forward scatter threshold, and DNA content of the intact nuclei was recorded on a logarithmic scale (Nicoletti, I. et al., J. Immunol. Methods, 139:271-9 (1991)). Percent apoptosis is represented as percentage of hypodiploid cells accumulated at sub-G0 phase of cell cycle.
(§2) Cells were left either untreated or pre-treated with DHMEQ (36), bortezomib (Goy, A. et al., Clin. Lymphoma, 4:230-7 (2004)) and PD098059 (Alessi, D. et al., J. Biol. Chem., 270:27489-94 (1995)). Escalating concentrations of various drugs were then added and the percentage of apoptosis was measured.

[3] = system: RR clones; assay: DNA fragmentation apoptosis assay, RR clones (pooled statements); type: cell-based, human; details: drugs e.g. Paclitaxel, Vincristine, VP-16, CDDP, Adriamycin
Method: Thus, we examined if such sensitizing agents can reverse the resistance in the RR clones.
as §1, §2

[4] = system: Ramos-RR1; assay: DNA fragmentation (PI) apoptosis assay, Ramos-RR1; details: for resistance of clone compared with wt cells / resistance of clone compared with wt cells, value in parentheses / apoptosis, drug alone: 18 h; for apoptosis, drug after DHMEQ pre-treatment: DHMEQ 20 μg/ml 2 h, then highest drug concentration 18 h; for apoptosis, drug alone: highest drug concentration
Method: as §1, §2

[5] = system: NF-κB and AP-1 DBA; assay: EMSA in RR clones; type: cell-based, human
Method: FIG. 8. […] A. Total cell lysates (40 μg) were subjected to western blot analysis using phospho-specific Abs for various components of the NF-κB and ERK1/2 pathways. B. The kinase activity of the IKK complex using IκB-α peptide (aa 1-50 including S^32/36) and ERK1/2 using MAPK kinase substrates 4 (aa 172-192) using immune-complex kinase assay. C. […] 10 μg of nuclear lysates were subjected to EMSA (n=2) (19, 20).
The DBAs were evaluated using biotin-labeled oligonucleotide AP-1 (5′-[…]-3′) (Lee, W et al., Cell, 49:741-52 (1987)) and NF-κB (5′-[…] […]-3′) probes (Harada, H. et al., Mol. Cell Biol., 14:1500-9 (1994)) using EMSA kit (Panomics, Inc., Redwood City, Calif.) according to manufacturer's instructions. 10 μg of nuclear extracts were subjected to […] 5% PAGE and developed (Jazirehi, A. et al., Cancer Research, 64:7117-26 (2004); Jazirehi, A. et al., Cancer Research, 65:264-76 (2005)).
Next, alterations in the DBA of NF-κB and AP-1 in the clones were examined.

[6] = system: Ramos wt cells; assay: DNA fragmentation (PI) apoptosis assay, Ramos wt; type: cell-based, human
[7] = system: 2F7, Ramos and Daudi wild type and RR clones; assay: TRAIL-mediated apoptosis in B-NHL cell lines and RR clones (DNA fragmentation); type: cell-based, human; details: for sensitization to TRAIL-induced apoptosis: inhibitor pretreatment 2 h, then TRAIL 18 h, rituximab-sensitive and -resistant cells
Description: Patients with B-NHL respond initially to conventional chemotherapy and/or to immunotherapy with rituximab (alone or in combination with chemotherapy). However, patients develop resistance to these modalities and novel approaches are needed. TRAIL is a cytotoxic molecule that exerts selective anti-tumor cytotoxic activity with minimal toxicity to normal tissues. Further, TRAIL or agonist monoclonal antibody (mAb) to TRAIL receptors, DR4 and DR5, are currently being tested clinically. The present study investigated the sensitivity of B-NHL cell lines to TRAIL-mediated apoptosis using the AIDS-related NHL (ARL) B-cell line, 2F7, and the B-NHL cell lines, Ramos and Daudi. Also, to recapitulate various aspects of acquired rituximab-resistance, we have generated rituximab-resistant (RR) clones from the parental wild type (wt) cells. […] We then examined means to reverse […] resistance. We and others have reported that inhibition of NFκB activity can sensitize TRAIL-resistant tumor cells to TRAIL-induced apoptosis. […] Both the rituximab-sensitive and rituximab-resistant tumor cells were sensitized by these inhibitors, though higher concentrations were required for sensitization of the RR clones. […] Based on the findings, patients with resistant B-NHL can be treated with combination of TRAIL/anti-DR4 or DR5 mAb and NFκB inhibitors. Alternatively, these patients can be treated with agents that up-regulate TRAIL expression on host effectors (e.g., T cells, NK cells) in combination with NFκB inhibitors.

[8] = system: Daudi wt cells; assay: DNA fragmentation (PI) apoptosis assay, Daudi wt; type: cell-based, human
[9] = system: 2F7RR1 clone; assay: Chemotherapeutic drug-induced apoptosis in 2F7RR1; type: cell-based
Description: (§3) Accordingly, we examined whether inhibition of Bcl-2 in 2F7RR1 can reverse chemoresistance. Since Bcl-2 is under the transcriptional regulation of NFκB, we examined the effect of the NF-κB inhibitors Bortezomib and DHMEQ (Kikuchi, et al., Cancer Research, 63:107 (2003)).
(§4) The mechanism by which B-NHL patients resist treatment is not known. […] We examined the effect of various chemical inhibitors of this signaling pathway on chemosensitization.

[10] = system: p38MAPK/NF-κB/YY1/STAT3 signaling pathways, Bcl-2; assay: Molecular analysis of signaling in 2F7RR1; type: cell-based; details: 2F7-RR1
Description: as §3, §4

[11] = wt Ramos, 2MAM-A3 15 μg/ml 7 h, paclitaxel 10 nM 18 h
[12] = Ramos-RR1, 2MAM-A3 35 μg/ml 7 h, paclitaxel 10 nM 18 h

Row | Molecule | sensitization of RR clones to various chemotherapeutic drugs [3] | resistance of clone compared with wt cells ([2]; Daudi-RR1) | resistance of clone compared with wt cells, value in parentheses ([2]; Daudi-RR1) | apoptosis, drug after DHMEQ pre-treatment ([2]; Daudi-RR1) | apoptosis, drug alone ([2]; Daudi-RR1) | resistance of clone compared with wt cells ([4]; Ramos-RR1) | resistance of clone compared with wt cells, value in parentheses ([4]; Ramos-RR1) | apoptosis, drug after DHMEQ pre-treatment ([4]; Ramos-RR1) | apoptosis, drug alone ([4]; Ramos-RR1) | also measured
1 | O=C1Nc2ccc(I)cc2/C1=C/c1cc(Br)c(O)c(Br)c1 [GW 5074] | – | – | – | – | – | – | – | – | – | sensitization to drug-induced apoptosis [1]: also sensitize the cells
2 | COc1cccc(-c2cc(=O)c3ccccc3o2)c1N [PD098059, [2-(2′-amino-3′-methoxyphenyl)-oxanaphthalen-4-one]] | sensitized | – | – | – | – | – | – | – | – | enhanced cytotoxicity of drugs by inhibitor [2]: 1.5-2.7 folds; sensitization to drug-induced apoptosis [1]: also sensitize the cells; enhanced cytotoxicity of drugs by inhibitor [4]: 1.8-3.1 folds; NF-κB and AP-1 DBA (EMSA) [5]: preferentially reduced
3 | CC(=O)O[C@H]1C(=O)[C@@]2(C)[C@H]([C@H](OC(=O)c3ccccc3)[C@]3(O)C[C@H](OC(=O)[C@H](O)[C@@H](NC(=O)c4ccccc4)c4ccccc4)C(C)=C1C3(C)C)[C@]1(OC(C)=O)CO[C@@H]1C[C@@H]2O [paclitaxel] | – | 1.63 folds | 139% | 42.0±1.9% | 14.9±3.2% | 1.54 folds | 136% | 46.5±2.3% | 20.4±3.0% | apoptosis, paclitaxel alone ([6]; wt Ramos, paclitaxel 10 nM 18 h): 13.6±1.3%; apoptosis, paclitaxel alone ([4]; Ramos-RR1, paclitaxel 10 nM 18 h): 8.42±2.1%
4 | CC(C)(C)c1ccc(S(=O)(=O)/C=C/C#N)cc1 [Bay 11-7085] | sensitized | – | – | – | – | – | – | – | – | sensitization to TRAIL-induced apoptosis [7]: significant augmentation of apoptosis and synergy was achieved
5 | CC[C@]1(O)C[C@H]2CN(CCc3c([nH]c4ccccc34)[C@@](C(=O)OC)(c3cc4c(cc3OC)N(C=O)[C@H]3[C@@](O)(C(=O)OC)[C@H](OC(C)=O)[C@]5(CC)C=CCN6CC[C@]43[C@@H]65)C2)C1 [vincristine] | – | 1.66 folds | 140% | 36.6±2.3% | 14.2±1.7% | 1.42 folds | 130% | 53.5±2.2% | 15.3±1.1% | –
6 | C[S+]([O-])c1ccc(-c2nc(-c3ccncc3)c(-c3ccc(F)cc3)[nH]2)cc1 (stereo not shown) [SB 203580] | sensitized | – | – | – | – | – | – | – | – | –
7 | CCCC[C@H]1C(=O)O[C@H](C)[C@H](NC(=O)c2cccc(NC=O)c2OC)C(=O)O[C@@H](C)[C@@H]1OC(=O)CC(C)C [2MAM-A3, 2-methoxyantimycin-A3] | sensitized | – | – | – | – | – | – | – | – | augmentation of paclitaxel cytotoxicity ([2]; Daudi-RR1, 2MAM-A3 35 μg/ml 7 h, paclitaxel 10 nM 18 h): 3.2 folds; apoptosis, paclitaxel after 2MAM-A3 pre-treatment [6, 11]: 26.7±2.2%; augmentation of paclitaxel cytotoxicity [6, 11]: 1.96 folds; augmentation of paclitaxel cytotoxicity ([8]; 2MAM-A3 15 μg/ml 7 h, paclitaxel 10 nM 18 h): 1.98 fold; apoptosis, paclitaxel after 2MAM-A3 pre-treatment [4, 12]: 39.7±2.4%; augmentation of paclitaxel cytotoxicity [4, 12]: 4.71 folds
8 | CC(C)C[C@H](NC(=O)[C@H](Cc1ccccc1)NC(=O)c1cnccn1)B(O)O [Bortezomib] | sensitized | – | – | – | – | – | – | – | – | chemosensitization to drug-induced apoptosis (taxol, vincristine, ADR, CDDP, VP16) [9]: reversal of resistance; also recorded: significantly sensitized; enhanced cytotoxicity of drugs by inhibitor [2]: 1.7-3.3 folds; effect on NF-kB, YY1 and Bcl-2 expression [10]: inhibition of NF-kB, YY1 and downregulated Bcl-2 expression; sensitization to TRAIL-induced apoptosis [7]: significant augmentation of apoptosis and synergy was achieved; enhanced cytotoxicity of drugs by inhibitor [4]: 1.8-5.1 folds
9 | N#CC(=C(/N)Sc1ccccc1N)/C(C#N)=C(/N)Sc1ccccc1N [UO126] | – | – | – | – | – | – | – | – | – | sensitization to drug-induced apoptosis [1]: also sensitize the cells
10 | COc1cccc2c1C(=O)c1c(O)c3c(c(O)c1C2=O)C[C@@](O)(C(=O)CO)C[C@@H]3O[C@H]1C[C@H](N)[C@H](O)[C@H](C)O1 [ADR] | – | 1.94 folds | 149% | 40.5±3.1% | 12.4±2.5% | 2.3 folds | 158% | 32.4±2.9% | 14.3±3.3% | –
11 | cross-linked rituximab: 50 μg/ml anti-human immunoglobulin (hIg)+20 μg/ml rituximab | – | – | – | – | – | – | – | – | – | higher threshold to cross-linked rituximab-mediated apoptosis vs wt ([2]; Daudi-RR1): 2.56 folds; apoptosis ([6]; Ramos wt, 50 μg/ml anti-hIg + 20 μg/ml rituximab, 24 h): 29.2±2.4%; apoptosis ([8]; 50 μg/ml anti-hIg + 20 μg/ml rituximab, 24 h): 32.8±2.1%; higher threshold to cross-linked rituximab-mediated apoptosis vs wt ([4]; Ramos-RR1): 2.86 folds
12 | COc1cc([C@@H]2c3cc4c(cc3[C@@H](O[C@@H]3O[C@@H]5CO[C@@H](C)O[C@H]5[C@H](O)[C@H]3O)[C@H]3COC(=O)[C@H]23)OCO4)cc(OC)c1O [VP-16] | – | 2.97 folds | 167% | 32.0±2.2% | 11.8±0.9% | 1.8 folds | 145% | 53.0±2.6% | 10.3±1.1% | –
13 | N.N.[Cl][Pt][Cl] [CDDP] | – | 1.95 folds | 149% | 36.6±0.9% | 25.7±3.1% | 1.41 folds | 120% | 61.2±2.1% | 19.0±0.7% | –
14 | TRAIL: tumor necrosis factor (TNF)-related apoptosis-inducing ligand (protein, UniProt P50591 1-281, looked up) Tumor necrosis factor ligand …: MAMMEVQGGPSLGQTCVLIVIFTVLLQSLCVAVTYVYFTNELKQMQDKYSKSGIACFLKEDDSYWDPNDEESMNSPCWQVKWQLRQLVRKMILRTSEETISTVQEKQQNISPLVRERGPQRVAAHITGTRGRSNTLSSPNSKNEKALGRKINSWESSRSGHSFLSNLHLRNGELVIHEKGFYYIYSQTYFRFQEEIKENTKNDKQMVQYIYKYTSYPDPILLMKSARNSCWSKDAEYGLYSIYQGGIFELKENDRIFVSVTNEHLIDMDHEASFFGAFLVG | – | – | – | – | – | – | – | – | – | sensitivity to TRAIL-mediated apoptosis ([7]; wild type and RR1 cells, TRAIL 1-250 ng/ml, 18 h): resistant

— patent US20090203050A1 (The Regents of the University of California, priority 2005, published 2009)
